Patent US9346754B2, “Method of treating advanced non-alcoholic steatohepatitis” (priority 2014, dated 2016)

Key:
[1] = system: STAM Model of Advanced Non-Alcoholic Steatohepatitis; assay: Sirius red staining, percentage of fibrosis area in STAM mice; assay type: in vivo, C57BL/6 mice; details: for Sirius red-positive area (fibrosis area): mean ± SD
Method: For HE staining, sections were cut from paraffin blocks of liver tissue prefixed in Bouin's solution and stained with Lillie-Mayer's Hematoxylin (Muto Pure Chemicals, Japan) and eosin solution (Wako Pure Chemical Industries). NAFLD Activity score (NAS) was calculated according to the criteria of Kleiner (Kleiner D E. et al., Hepatology, 2005; 41:1313). To visualize collagen deposition, Bouin's fixed liver sections were stained using picro-Sirius red solution (Waldeck, Germany). For quantitative analysis of fibrosis area, inflammation area, and semi-quantification of α-SMA, bright field images of Sirius red-stained, F4/80- and α-SMA-immunostained sections were captured around the central vein using a digital camera (DFC280: Leica Microsystems, Germany) at 200-fold magnification, and the positive areas in 5 fields/section were measured using ImageJ software (National Institute of Health, USA). […] P values<0.05 were considered statistically significant. […] Results were expressed as mean±SD.

[2] = system: FLAP mRNA; assay: Liver gene expression by quantitative RT-PCR: FLAP; assay type: in vivo, C57BL/6 mice; details: 100 mg/kg oral once daily, 8 to 12 weeks of age (MN-001-high)
Method: (§1) Total RNA was extracted from liver samples using RNAiso (Takara Bio, Japan) according to the manufacturer's instructions. One μg of RNA was reverse-transcribed using a reaction mixture containing 4.4 mM MgCl2 (F. Hoffmann-La Roche, Switzerland), 40 U RNase inhibitor (Toyobo, Japan), 0.5 mM dNTP (Promega, USA), 6.28 μM random hexamer (Promega), 5× first strand buffer (Promega), 10 mM dithiothreitol (Invitrogen, USA) and 200 U MMLV-RT (Invitrogen) in a final volume of 20 μL. The reaction was carried out for 1 hour at 37° C., followed by 5 minutes at 99° C. Real-time PCR was performed using real-time PCR DICE and SYBR premix Taq (Takara Bio). To calculate the relative mRNA expression level, the expression of each gene was normalized to that of reference gene 36B4 (gene symbol: Rp1p0). Information of PCR-primer sets are described in Table 1. [table] […] P values<0.05 were considered statistically significant. […] Results were expressed as mean±SD.

[3] = system: LTC4 synthase mRNA; assay: Liver gene expression by quantitative RT-PCR: LTC4 synthase; assay type: in vivo, C57BL/6 mice; details: Telmisartan 10 mg/kg oral once daily, 8 to 12 weeks of age
Method: as §1

[4] = Telmisartan 10 mg/kg oral once daily, 8 to 12 weeks of age
Method: NASH was induced in 50 male mice by a single subcutaneous injection of 200 μg streptozotocin (STZ, Sigma-Aldrich, USA) solution 2 days after birth and feeding with high fat diet (HFD, 57 kcal % fat, cat#: HFD32, CLEA Japan, Japan) after 4 weeks of age.
MN-001 was administered at doses of 10, 30, and 100 mg/kg once daily. Telmisartan was administered at a dose of 10 mg/kg once daily.
Statistical analyses were performed using Bonferroni Multiple Comparison Test on GraphPad Prism 4 (GraphPad Software, USA). P values<0.05 were considered statistically significant. A trend or tendency was assumed when a one-tailed t-test returned P values<0.10. Results were expressed as mean±SD.
The viability, clinical signs and behavior were monitored daily. Body weight was recorded before the treatment. […] The animals were sacrificed by exsanguination through direct cardiac puncture under ether anesthesia (Wako Pure Chemical Industries).

[5] = 10 mg/kg oral once daily, 8 to 12 weeks of age (MN-001-low; Telmisartan)
[6] = 10 mg/kg oral once daily, 8 to 12 weeks of age (MN-001-low n=10; Telmisartan n=9)

| Structure (SMILES) | Fibrosis area compared with the Vehicle group [1, 5] | Fibrosis area compared with the Vehicle group ([1]; 30 mg/kg oral once daily, 8 to 12 weeks of age (MN-001-middle)) | Fibrosis area compared with the Vehicle group ([1]; 100 mg/kg oral once daily, 8 to 12 weeks of age (MN-001-high)) | Sirius red-positive area (fibrosis area) [1, 6] [%] | Sirius red-positive area (fibrosis area) ([1]; 30 mg/kg oral once daily, 8 to 12 weeks of age (MN-001-middle, n=10)) [%] | Sirius red-positive area (fibrosis area) ([1]; 100 mg/kg oral once daily, 8 to 12 weeks of age (MN-001-high, n=10)) [%] | FLAP mRNA expression levels compared with the Vehicle group [2] | LTC4 synthase mRNA expression levels compared with the Vehicle group [3] | Mortality (animals found dead) [4] |
| --- | --- | --- | --- | --- | --- | --- | --- | --- | --- |
| CCCc1c(SCCCOc2ccc(C(C)=O)c(OCCCC(=O)O)c2CCC)ccc(C(C)=O)c1O [MN-001] | significantly decreased | tended to decrease | significantly decreased | 0.75 ± 0.40 | 0.95 ± 0.37 | 0.65 ± 0.28 | tended to increase | – | – |
| CCCc1nc2c(C)cc(-c3nc4ccccc4n3C)cc2n1Cc1ccc(-c2ccccc2C(=O)O)cc1 [Telmisartan, reference compound] | significantly decreased | – | – | 0.49 ± 0.19 | – | – | – | tended to decrease | One of the Telmisartan group was found dead on day 24 |
